Experimental findings from paper PMC4049535 (Nature communications, 2013) are described below.

The target of assay [1] is T1, Antigen 85C (Ag85C) (Mycobacterium tuberculosis, UniProt P9WQN9). In words: peptide mass fingerprinting of tryptic peptides. The class given is biochemical.
The target in assay [2] is T1, Antigen 85C (Ag85C). Briefly: resorufin butyrate fluorometric assay dose-dependence. The class given is biochemical.

T1 sequence (P9WQN9 46-340): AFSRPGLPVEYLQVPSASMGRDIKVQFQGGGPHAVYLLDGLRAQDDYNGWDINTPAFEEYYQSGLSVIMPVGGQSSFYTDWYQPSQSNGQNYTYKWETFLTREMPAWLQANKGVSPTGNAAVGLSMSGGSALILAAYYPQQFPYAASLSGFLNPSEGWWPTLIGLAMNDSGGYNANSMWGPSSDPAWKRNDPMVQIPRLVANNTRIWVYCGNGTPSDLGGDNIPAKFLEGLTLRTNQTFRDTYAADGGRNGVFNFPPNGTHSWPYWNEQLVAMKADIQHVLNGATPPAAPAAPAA

On to `NC(=O)CI` [IAA, iodoacetamide], for which the “peptide mass fingerprinting of tryptic peptides (MALDI-MS); activity loss in res” value on Antigen 85C (Ag85C) [1] was determined as 51.2 mM.
The Ki is the equilibrium dissociation constant of an inhibitor or competing ligand from its target. A high value points to weaker binding. Compound `O=c1c2ccccc2[se]n1-c1ccccc1` [EBS, ebselen] had a Ki at Antigen 85C (Ag85C) [2] of 63 nM.
